For one test, the system named is GH levels in the rat. Briefly: Growth hormone (GH) levels in NEMBUTAL-anesthetized, stimulated rats (RIA). To be noted: mean ± SE. The format is in vivo. As to the method: (§1) In this evaluation the procedures described by W. A. Murphy et al. Endocrinology 109:491-495 (1980), were employed.
In growth hormone (GH) experiments, male rats (Charles Rivers) were anesthetized with NEMBUTAL® (5 mg per 100 g/BW) which also served to maintain stimulated plasma GH levels. Exactly 30 minutes after the rats were anesthetized, 0.5 mL of saline or the test peptide in saline was administered as a sc bolus. A 1 mL blood sample was drawn from the jugular vein 15 minutes after the injection. For examining blocking effects of the analog on somatostatin, the cyclic peptide was given 5 minutes prior to somatostatin. GH levels were determined using NIADDKD rat GH RIA components.

Test [1] has as its system glucagon levels in hepatic portal blood. Briefly: Glucagon levels in hepatic portal blood of fasted rats (RIA). The format is in vivo, rat. As to the method:
as §1
(§2) For measurement of effects on insulin and glucagon levels, rats were fasted 27-30 hours and anesthetized with NEMBUTAL® (5 mg per 100 g body wt). Exactly 21 minutes after NEMBUTAL® injection 0.5 mL of saline or saline containing test peptide was injected into the jugular vein over a 1 minute period. Five minutes later, 3.5 mL of blood were quickly drawn from the hepatic portal vein after rapid laparotomy. Blocking effects of analog on exogenous somatostatin were examined by simultaneous injection of both peptides. Plasma insulin levels were determined using matched insulin RIA kits purchased from Cambridge Nuclear, Billerica, MA. Plasma glucagon was determined using Unger 30K antibody and ^125 I-glucagon (Cambridge Nuclear) as the tracer.

Test [2] deals with insulin levels in hepatic portal blood. Briefly: Insulin levels in hepatic portal blood of fasted rats (RIA). The format is in vivo, rat. As to the method:
as §1, §2

For `C[C@H](N)C(=O)NCC(=O)N[C@H]1CSSC[C@@H](C(=O)O)NC(=O)[C@H](CO)NC(=O)[C@H]([C@@H](C)O)NC(=O)[C@H](Cc2ccccc2)NC(=O)[C@H]([C@@H](C)O)NC(=O)[C@H](CCCCN)NC(=O)[C@H](Cc2c[nH]c3ccccc23)NC(=O)[C@H](Cc2ccccc2)NC(=O)[C@H](Cc2ccccc2)NC(=O)[C@H](CC(N)=O)NC(=O)[C@H](CCCCN)NC1=O` [Somatostatin], the GH with GH levels in the rat (Table I Experiment 1, fed rats, 0.2 μg/100 g body weight sc, blood 15 min after injection, saline 277 ± 40) was 146 ± 14 ng/mL; in the test with GH levels in the rat (Table I Experiment 1, fed rats, 0.6 μg/100 g body weight sc, blood 15 min after injection, saline 277 ± 40) it was 78 ± 26 ng/mL; with GH levels in the rat (Table I Experiment 2, fasted rats, 0.4 μg/100 g body weight, saline 403 ± 85) it was 107 ± 13 ng/mL. Also, the “Glucagon (Mean ± SE)” value in test [1] (Table III Experiment 1, fasted rats, 0.4 μg/100 g iv, portal blood 5 min later, saline 80 ± 5) came out at 64 ± 3 pg/mL; in test [1] (Table III Experiment 1, fasted rats, 2.0 μg/100 g iv, saline 80 ± 5) it was 46 ± 4 pg/mL; in test [1] (Table III Experiment 1, second saline set, fasted rats, 1.0 μg/100 g iv, saline 94 ± 9), 78 ± 7 pg/mL; in test [1] (Table III Experiment 2, fasted rats, 1.0 μg/100 g iv, saline 45 ± 3), 18 ± 7 pg/mL. The “Insulin (Mean ± SE)” value in test [2] (Table III Experiment 1, fasted rats, 0.4 μg/100 g iv, portal blood 5 min later, saline 67 ± 11) is recorded as 57 ± 3 μU/mL; in test [2] (Table III Experiment 1, fasted rats, 2.0 μg/100 g iv, saline 67 ± 11) it was 28 ± 11 μU/mL; in test [2] (Table III Experiment 1, second saline set, fasted rats, 1.0 μg/100 g iv, saline 46 ± 5), 11 ± 2 μU/mL.

Source of the values: patent US4508711A, “Cyclic pentapeptide displaying somatostatin antagonism and method of treatment of mammals therewith” (American Cyanamid Company, priority 1984, dated 1985).
